Data set [1] concerns N2a cells. As to the kind of experiment: Protection against hydrogen peroxide-induced cell death, N2a. It is filed as cell-based, mouse. The settings on record: compound 40 μM; hydrogen peroxide 200 μM. As to the method:
Protection against Hydrogen Peroxide-induced Cell-death. N2a cells grown in 96-well plates were exposed to a test compound (40 μM) for 2 hrs before addition of hydrogen peroxide (200 μM). After 40 min of incubation with hydrogen peroxide, ALAMARBLUE® regent (10% v/v) was added to the wells. Fluorescence reading was taken 2 hrs after the addition of the ALAMARBLUE® regent. Cell-viability was calculated as a percentage of relative fluorescence unit (RFU) compared to control.
(§1) The results are summarized in Table 2, where A represents a value greater than 50% cell rescue, B represents a value between 10% to 50% cell rescue, C represents a value between 1% to 10% cell rescue, and D represents a value no greater than 1% cell rescue.

Data set [2] has as its system SERCA (SR vesicles). As to the kind of experiment: Activation of SERCA, increase in Vmax. The data set is classed as biochemical.
Experimental: Test compounds were characterized over a range of concentrations using an NADH-linked, enzyme-coupled ATPase assay. Each well contained 2 mg or 7 mg of SR vesicles (optimized for skeletal or cardiac SR, respectively), 50 mM MOPS (pH 7.0), 100 mM KCl, 5 mM MgCl2, 1 mM EGTA, 0.2 mM NADH, 1 mM phosphoenol pyruvate, 5 IU pyruvate kinase, 5 IU lactate dehydrogenase, and 3.5 mg/mL A23187 (a calcium ionophore), and CaCl2 was added to set free [Ca2+] to the specific values. The assay was started upon addition of ATP at a final concentration of 5 mM, and read in a SpectraMax Plus microplate spectrophotometer and the ATPase activities were fitted using the Hill function.
Data set [3] has as its system HEK293 cells. As to the kind of experiment: Protection against thapsigargin (TG)-induced cell death, HEK293. The data set is classed as cell-based, human. The following applies: compound 20 μM; thapsigargin 15 μM; 24 hrs. As to the method: (§2) Protection against Thapsigargin (TG)-induced Cell-death. Human embryonic kidney (HEK293) cells were grown in Dulbecco's Modified Eagle's Medium (DMEM) with 10% FBS and 1% antibiotic antimycotic solution (ABAM). Mouse neuroblastoma (N2a) cells were grown in 1:1 DMEM:OPTI-MEM® with 5% FBS and 1% ABAM. All cells were grown in 10% CO2 in a humidified environment of the incubator. Cells grown in 96-well plates were exposed to a test compound (20 μM) for 2 hrs before addition of thapsigargin (15 μM for HEK293 cells and 1 μM for N2a cells) to induce ER stress. After incubation in cell-culture incubator for 24 hrs, ALAMARBLUE® regent (10% v/v) was added to the wells. Fluorescence reading was taken 2 hrs after the addition of the ALAMARBLUE® regent. Cell-viability was calculated as a percentage of relative fluorescence unit (RFU) compared to control.
as §1

The test system of data set [4] is N2a cells. As to the kind of experiment: Protection against thapsigargin (TG)-induced cell death, N2a. The settings on record: compound 20 μM; thapsigargin 1 μM; 24 hrs. It is filed as cell-based, mouse. As to the method: as §2, §1
Data set [5] deals with human islet microtissues. As to the kind of experiment: Protection of human pancreatic islets under cytokine stress. It is filed as cell-based. The settings on record: 168 h, compound 5 μM, cytokine cocktail IL1-β, IFN-γ, TNF-α, 7 days, read-out: increase in viability over baseline (total ATP content). How it is done:
Human pancreatic islet microtissues treated with cytokines were used to model the conditions of Type 1 Diabetes in vitro. This study tested the effects of compounds on […] viability in human islets under cytokine stress. The model consisted of human islet microtissues from an HLA-A2 positive donor grown and separated in a 96-well plate (1 microtissue per well). The microtissues were treated for 7 days with a cocktail of cytokines (IL1-β 5 ng/mL, IFN-γ 25 ng/mL, TNF-α 25 ng/mL) and compound (5 μM) or vehicle. There were 6 microtissues treated per compound or vehicle. At day 7, the total ATP content was measured using CellTiter-Glo (Promega).

Data set [6] is described as follows: Pharmacokinetics in Sprague Dawley rats. The following applies: rat; for AUC(0-t): read-out: AUC0-t; for MRT inf: read-out: MRT0-∞. It is filed as in vivo, rat. As to the method: Blood was drawn at 5 min, 15 min, 30 min, 1 hr, 2 hrs, 4 hrs, 6 hrs, and 8 hrs into EDTA containing tubes and plasma was harvested by centrifugation. Plasma (25 μL) was treated with acetonitrile (125 μL) containing an internal standard. The sample was then centrifuged for 5 min at 4,000 rpm in a tabletop centrifuge and the filtrate was collected. The filtrate was injected onto a Thermo Betasil C18 HPLC column 5 (50×2.1 mm). Mobile Phase A was water with 0.1% formic acid. Mobile Phase B was acetonitrile with 0.1% formic acid. […] An API Sciex 4000 equipped with a turbo ion spray source was used for all analytical measurements. A positive ion MRM method was developed. Peak areas of the product ion were measured against the peak areas of the internal standard. Data was fit using WinNonLin (Pharsight Corporation, Mountain View, CA).

Data set [7] can be described thus: Pharmacokinetics in CD-1 mice. The data set is classed as in vivo, mouse. The following applies: CD-1 mice. How it is done:
Pharmacokinetics of test compounds were assessed in CD-1 mice. The compounds were formulated at 1 mg/mL in DMSO/Tween 80/water (10/10/80, vol/vol/vol) and dosed at 2 mg/kg intravenous (i.v.) or 10 mg/kg by oral gavage (P.O.) in triplicate. Blood was drawn at 0.25 h, 0.5 h, 1 hr, 2 hrs, 4 hrs, 8 hrs, and 24 hrs into EDTA containing tubes and plasma was harvested by centrifugation. Plasma (10 μL) containing 50% acetonitrile in water (5 μL) was added to 200 μL of ACN containing an internal standard. The samples were vortexed for 30 s. After centrifugation at […] and 4,000 rpm for 15 min, the supernatant was diluted 3 times with water. Then, 20 μL of diluted supernatant was injected into the LC/MS/MS system for quantitative analysis. The samples were injected onto an Agilent ZORBAX XDB-Phenyl 5μ column (50×2.10 mm). Mobile Phase A was water with 0.1% formic acid. Mobile Phase B was acetonitrile with 0.1% formic acid. Separation was achieved using a gradient of 70% A/30% B to 0% A/100% B over 2.10 min. A Shimadzu LCMS-8050 equipped with a turbo ion spray source was used for all analytical measurements. A positive ion MRM method was developed. Peak areas of the product ion were measured against the peak areas of the internal standard. Data was fit using WinNonLin (Pharsight Corporation, Mountain View, CA).

Data set [8] relates to CSM14.1 cells. As to the kind of experiment: ER stress cell survival assay (thapsigargin).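 Further: survival read as CellTiter-Glo luminescence after overnight incubation.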 The data set is classed as cell-based. The following applies: compound 2 μM; about 15 μM thapsigargin; CSM14.1 cells. As to the method: ER Stress Cell Survival Assay
CSM14.1 cells were maintained in Complete Medium at 32° C.; wherein the Complete Medium contained Dulbecco's modified eagle medium (DMEM) with 10% fetal bovine serum (FSB), 1% L-glutamine, 100 IU/mL penicillin, and 100 μg/mL streptomycin. The cells were recovered from cultures by trypsinization and then seeded in 384 well plates (Greiner #781098) at a concentration of 1,000 cells/well in 20 μL of DMEM Assay Medium, wherein the DMEM Assay Medium contained 2% FBS, 100 IU/mL penicillin, and 100 μg/mL streptomycin. Seeding was performed using a MultiDrop Combi reagent broadcaster. The plates were incubated overnight at 32° C.
A test compound was prepared by 2-fold serial dilution in 100% DMSO using a BIOMEK® 2000 liquid handler (Beckman Coulter). A dose-response curve containing 10 concentrations of the test compound was obtained. Using a BIOMEK® FX liquid handler (Beckman Coulter), 2.5 μL of the test compound was transferred from the 100% DMSO serial dilution plate to an intermediate plate containing 47.5 μL of DMEM Assay Medium containing 2% FBS, 100 IU/mL penicillin, and 100 μg/mL streptomycin and mixed. To reduce or eliminate the interference from the compound's precipitation, 6 μL of the diluted compound was immediately transferred to the assay plate to achieve a high compound concentration of 100 μM in 99% DMEM Assay Medium and 1% DMSO. After the assay plates were incubated for 2 hrs, 4 μL of 112.5 μM thapsigargin (TG) (DMSO stock diluted into Assay TC Medium) was dispensed into each testing well with a MultiDrop Combi reagent broadcaster for a final concentration of about 15 μM TG. The tissue culture media (4 μL) containing vehicle only was transferred manually to each control cell using a 16 channel electronic pipette. […] High luminescence indicates cell survival.
Alternatively, a test compound was tested at a single compound concentration (e.g., 2 μM) to determine the effect of the compound on cell survival in comparison with vehicle.

[9] abbreviates: Sprague Dawley, in vivo, IV 2 mg/kg.
[10] abbreviates: Sprague Dawley, in vivo, PO 10 mg/kg.
The mark [11] stands for this setting: mouse, plasma, 2 mg/kg i.v. or 10 mg/kg P.O.

Where two headings read alike, the source gives them in different places.

In the case of `COc1ccc(C(=O)Nc2cccc3ccc(C)nc23)cc1` [Compound A8, 4-Methoxy-N-(2-methylquinolin-8-yl)benzamide], the “N2a Cells (H2O2-induced) cell rescue” value in data set [1] is “B (B represents a value between 10% to 50% cell rescue)”. Besides, the “Increase in Vmax at 10 μM” value in data set [2] is reported as “C′ (C′ represents an increase no greater than 20%)”. For the same compound, in data set [3], the “HEK293 Cells (TG-induced) cell rescue” value was “A (A represents a value greater than 50% cell rescue)”. Also, the “N2a Cells (TG-induced) cell rescue” value in data set [4] was “B (B represents a value between 10% to 50% cell rescue)”.
As for `COc1ccccc1C(=O)Nc1cccc2ccc(C)nc12` [Compound A9, 2-Methoxy-N-(2-methylquinolin-8-yl)benzamide], the “N2a Cells (H2O2-induced) cell rescue” value in data set [1] was “B (B represents a value between 10% to 50% cell rescue)”. Further, the “HEK293 Cells (TG-induced) cell rescue” value in data set [3] is “A (A represents a value greater than 50% cell rescue)”. Also, the “N2a Cells (TG-induced) cell rescue” value in data set [4] is given as “A (A represents a value greater than 50% cell rescue)”.
The term viability denotes a per cent measure of how many cells are alive, often set against a control. The AUC(0-inf) is total exposure, with the tail of the curve extrapolated. Broadly, the Cmax is the highest concentration seen after dosing. One may read the Tmax as the time from dosing to the highest level. Usually clearance stands for the rate of elimination divided by the concentration. A word on the half-life: it is how long it takes for the measured level to halve. A high value points to slow decline. Regarding `COc1c(C)cccc1C(=O)Nc1cccc2ccc(C)nc12` [Compound A19, 2-Methoxy-3-methyl-N-(2-methylquinolin-8-yl)benzamide], the viability at 5 µM in data set [5] was in the range of 20 to 50%. Also, the “Increase in Vmax at 10 μM” value in data set [2] is recorded as “A′ (A′ represents an increase greater than 50%)”. For the same compound, in data set [6] (setting [9]), the area under the curve AUC(0-inf) stood at 309 ± 17 ng·h/mL, the peak level (Cmax) was 3850 ± 460 nM, the Tmax came out at 1.2 min and the clearance was 0.167 mL/min/kg. In data set [6] (setting [9]), the half-life is 27 min, the AUC(0-t) was found to be 299 ± 17 ng·h/mL and the MRT inf is 27.6 min. For the same compound, in data set [6] (setting [10]), the total exposure AUC(0-inf) was 385 ± 99 ng·h/mL, the Cmax amounted to 1250 ± 400 nM, the time of peak concentration (Tmax) is 19.8 min and the half-life is 26.4 min. Moreover, in data set [6] (setting [10]), the AUC(0-t) stood at 375 ± 105 ng·h/mL and the MRT inf came to 45 min. In data set [6] (PO 10 mg/kg vs IV 2 mg/kg), this compound returned an F of 25%.
The term AUC denotes the area under the concentration-time curve, a measure of exposure. A high value points to more exposure. With `Cc1ccc2cccc(NC(=O)c3ccc(Br)s3)c2n1` [Compound B1, 5-Bromo-N-(2-methylquinolin-8-yl)thiophene-2-carboxamide], the F in data set [7] (10 mg/kg P.O. vs 2 mg/kg i.v.) turned out to be 2.9%. Also, in data set [7] (setting [11]), the AUC was 21 ng·h/mL, the Cmax was 80 nM and the half-life is 42 min. The “N2a Cells (H2O2-induced) cell rescue” value in data set [1] is on record as “A (A represents a value greater than 50% cell rescue)”. Further, the “Increase in Vmax at 10 μM” value in data set [2] was “B′ (B′ represents an increase between 20 to 50%)”. For the same compound, the “N2a Cells (TG-induced) cell rescue” value in data set [4] is listed as “B (B represents a value between 10% to 50% cell rescue)”.
As for `N#Cc1cccc(C(=O)Nc2cccc3cccnc23)c1` [Compound B3, 3-Cyano-N-(quinolin-8-yl)benzamide], in data set [1], the “N2a Cells (H2O2-induced) cell rescue” value is “B (B represents a value between 10% to 50% cell rescue)”. Also, the “Increase in Vmax at 10 μM” value in data set [2] is on record as “C′ (C′ represents an increase no greater than 20%)”. Besides, the “HEK293 Cells (TG-induced) cell rescue” value in data set [3] was “A (A represents a value greater than 50% cell rescue)”. In data set [4], the “N2a Cells (TG-induced) cell rescue” value is listed as “B (B represents a value between 10% to 50% cell rescue)”.
As to `Cc1ccc2cccc(NC(=O)c3ccc(C#N)cc3)c2n1` [Compound B4, 4-Cyano-N-(2-methylquinolin-8-yl)benzamide], the “N2a Cells (H2O2-induced) cell rescue” value in data set [1] is recorded as “B (B represents a value between 10% to 50% cell rescue)”. Besides, the “HEK293 Cells (TG-induced) cell rescue” value in data set [3] was “A (A represents a value greater than 50% cell rescue)”. Further, the “N2a Cells (TG-induced) cell rescue” value in data set [4] is reported as “B (B represents a value between 10% to 50% cell rescue)”.
`Cc1ccc2cccc(NC(=O)c3ccccc3C(F)(F)F)c2n1` [Compound C5, 2-Trifluoromethyl-N-(2-methylquinolin-8-yl)benzamide]: the “Cell Survival” value in data set [8] was “B (B represents a value between 10% and 50%)”. Further, the “N2a Cells (H2O2-induced) cell rescue” value in data set [1] is “B (B represents a value between 10% to 50% cell rescue)”. In addition, the “Increase in Vmax at 10 μM” value in data set [2] is reported as “B′ (B′ represents an increase between 20 to 50%)”. The “HEK293 Cells (TG-induced) cell rescue” value in data set [3] was “A (A represents a value greater than 50% cell rescue)”. The “N2a Cells (TG-induced) cell rescue” value in data set [4] is listed as “A (A represents a value greater than 50% cell rescue)”.
As to `Cc1ccc2cccc(NC(=O)c3ccc(C(F)(F)F)cc3)c2n1` [Compound C10, 4-Trifluoromethyl-N-(2-methylquinolin-8-yl)benzamide], in data set [8], the “Cell Survival” value is “D (D represents a value no greater than 1%)”. Besides, the “N2a Cells (H2O2-induced) cell rescue” value in data set [1] is on record as “B (B represents a value between 10% to 50% cell rescue)”. In addition, the “HEK293 Cells (TG-induced) cell rescue” value in data set [3] is “A (A represents a value greater than 50% cell rescue)”. Further, the “N2a Cells (TG-induced) cell rescue” value in data set [4] was “B (B represents a value between 10% to 50% cell rescue)”.

For the origin of these results see US11890279B2, “Quinolines that modulate SERCA and their use for treating disease” (Neurodon Corporation, priority 2020, dated 2024).
